Measured values as given in US9730928B2, “Trizol-1-OL analogs anti-retroviral latency drugs” (priority 2013, dated 2017).
Entries after “also recorded” stand apart in the source; their conditions may differ.

Key:
[1] = system: latent HIV-1; assay: Blocking of viral reactivation by chemical inhibitors of known signaling pathways; assay type: cell-based; conditions: reactivation stimulus HOAt
Source text: The ability of chemical inhibitors of known signaling pathways to block viral reactivation mediated by HOAt was examined (FIG. 4A). […] Activation of JAK kinases lead to the activation of the transcription factors STATs. Specific inhibitors of STAT3 and STAT5 were thus also studied.

[2] = system: latent HIV-1; assay: Reactivation of latent HIV-1 in absence or presence of γc-cytokines; assay type: cell-based; conditions: for viral reactivation by cytokine alone: cytokine by itself, compared with absence of cytokines; for viral reactivation in the presence of IL-2, IL-4, and IL-15: as worded; for viral reactivation in the presence of IL-2, IL-7 and IL-5: as worded in FIG. 3 legend b37; for viral reactivation in combination with IL-4: combined with IL-4; for viral reactivation in combination with IL-9 and IL-21: combined with IL-9 or IL-21; for viral reactivation in the absence of γc-cytokines: no cytokines, p24Gag 72 hours
Method: Latently infected cells were generated using healthy, uninfected DONOR 78 cells that were infected with DHIV virus. Reactivation was monitored by analysis of p24Gag by Flow Cytometry 72 hours after stimulation.

[3] = system: STAT5; assay: STAT5 phosphorylation by flow cytometry in cultured TCM; assay type: cell-based, human
Method: The levels of STAT5 phosphorylation were analyzed by flow cytometry after incubating cultured TCM with HOAt, IL-2, or a combination of both, during a 24 h period (FIG. 4B).

[4] = system: memory T cells / cultured TCM; assay: T cell activation (activation markers CD25 and CD69); assay type: cell-based, human; conditions: for increase of CD25 levels (mean intensity of fluorescence): maximum concentration used (compound), TCR engagement (αCD3/αCD28)
Source text: (§1) Memory cells were generated from 3 different donors and treated with either HOBt or anti-CD3/CD28 to analyze the effect of HOBt on T cell activation (FIG. 6A). Analysis of T cell activation was done by analyzing the upregulation of the activation markers CD25 and CD69 three days post activation. […] Analysis of T cell differentiation was done by analyzing the levels of CCR7 and CD27 three days post activation (FIG. 6B).
(§2) In order to determine whether HOAt is inducing T cell proliferation, culter TCM were incubated with HOAt in a dose dependent manner. […] It has been shown previously that both cultured TCM and ex vivo TCM express low levels of CD25 (Bosque et al. 2011). This level is increased by 37 times after TCR engagement with αCD3/αCD28, measured as mean intensity of fluorescence (values between parenthesis, FIG. 6D).
CD69 upregulation is concomitant with T cell activation.

[5] = system: STAT5; assay: Nuclear localization of STAT5; assay type: cell-based, human; conditions: IL-2 alone or in the presence of HOAt
Source text: Nuclear translocation of STAT5 is required for its transcriptional activity. […] Histone H3 and alpha Tubulin were used as controls for purity of the fractionation.

[6] = system: pSTAT5; assay: pSTAT5 levels 48 h after IL-2 plus derivatives, flow cytometer; assay type: cell-based; conditions: with IL-2, 48 h
Method: Cells were treated with IL-2 and several derivatives of HOAt. Levels of pSTAT5 were measured 48 h later by flow cytometer.

[7] = system: SOCS3; assay: Expression levels of SOCS3, a target gene for STAT5; assay type: cell-based, human; conditions: IL-2 and HOAt, 24 h post-treatment
Method: STAT5 is a transcriptional activator of multiple genes. To address whether HOAt will increase the transcription of any STAT5 target genes, the expression levels of SOCS3, a target gene for STAT5, were analyzed.

[8] = system: latent HIV-1; assay: Reactivation of latent HIV-1 in latently infected cultured TCM (GFP / p24Gag by flow cytometry); assay type: cell-based; conditions: for activation of latent HIV-1 (viral reactivation): 72 hours after stimulation, GFP or p24Gag by flow cytometry; for ability to induce viral reactivation compared to the original hit HOBt: panel of 7 derivatives of HOBt (FIG. 2D)
Source text: A novel primary cell model for the study of HIV-1 latency was adapted so as to be suitable for high-throughput screening (HTS) of new compounds that may reactivate HIV-1 from its latency state (Bosque and Planelles, 2009; Bosque and Planelles, 2010; and patent application: Methods and compositions relating to viral latency, Planelles V, Basque A, U.S. Patent Application 2010/0291067 A1, November 2010).
To facilitate HTS, the nef gene was replaced with that encoding the green fluorescent protein (GFP). It was confirmed that deletion of nef has no effect in latency/reactivation (Bosque and Planelles, 2009) and that using GFP provides a faster, more economical, and equally sensitive, as compared to intracellular p24 detection, readout.
The reactivation experiments were modified to be performed in 96-well plates, utilizing 100,000 cells per well. After reactivation, flow cytometric analysis was performed with Becton Dickinson FACSCanto II with a High Throughput Sampler (HTS) for microtiter plates that is available through the Flow Cytometry Core Facility at the University of Utah. It takes about 30 minutes to analyze a plate, when acquiring 10,000 cells per well. Analysis for each well includes (a) green fluorescence as a direct indicator of viral reactivation; and (b) forward and side scatter as general measures of cell morphology, which is a gross indication of viability.
Latently infected cells were generated using healthy, uninfected DONOR 78 cells that were infected with DHIV virus. Reactivation was monitored by analysis of GFP by Flow Cytometry 72 hours after stimulation. Beads coated with anti-CD3/anti CD28 (CD3/CD28) were used as a positive reactivation stimulus. Reactivation was done in a 96-well plate round bottom. […] This compound is an intermediate en route to synthesis of a cyclic peptide isolated from a tunicate.
HPLC was used to generate 20 fractions based on elution time using a gradient from 10-100% acetonitrile in 0.1% formic acid using a Phenomenex Kinetic C18 50×2.10 mm column ([…], 100 A). The ability of these fractions to activate HIV-1 was tested and compared in parallel with the original hit. […] Further fractionation of C7 was performed and each fraction tested at the concentration indicated in the graph (FIG. 1D). […] Finally, HOBt was tested at different concentrations and analyzed on either Day 3, Day 5, or Day 7.

[9] = system: pSTAT5; assay: pSTAT5 immunoprecipitation and western blot; assay type: cell-based; conditions: 30 min pretreatment, then IL-2 for 30 min
Method: STAT5 was immunoprecipitated with antibodies specific for the phosphorylated protein and western blot was performed against pSTAT5.

[10] = system: cultured TCM; assay: T cell proliferation of cultured TCM; assay type: cell-based, human; conditions: dose dependent incubation
Method: as §2

[11] = system: latent HIV-1; assay: Reactivation of latent HIV-1 in cells isolated from aviremic HIV-1 patients; assay type: cell-based; conditions: cells of two patients suppressed with antiretroviral; versus DMSO control
Source text: Briefly, cells for two patients suppressed with antiretroviral were isolated and treated with either DMSO (Control), HOAt or the mitogen PHA.

[12] = system: latent HIV-1; assay: Viral reactivation mediated by other stimuli (PMA, ionomycin, SAHA); assay type: cell-based; conditions: HOAt added to each of three stimuli
[13] = system: memory T cells; assay: T cell differentiation (CCR7 and CD27 levels); assay type: cell-based, human; conditions: three days post activation
Source text: as §1

O=C(N/N=C/c1coc2ccccc2c1=O)c1cccnc1 [STAT5 inhibitor] was tested. Which “effect on viral reactivation induced by HOAt” value [1] did it give?
The value was “completely abrogates viral reactivation; also recorded: completely prevent activation of latent HIV-1 by HOAt”.

IL-21: γc-cytokine was tested. Which “viral reactivation by cytokine alone” value [2] did it give?
Its value is “did not have an effect in viral reactivation; also recorded: no effect”.

With On1nnc2cccnc21 [HOAt, 1-hydroxy-7-azabenzotriazole] as the molecule, how does the “STAT5 phosphorylation, agent alone over untreated cells” value ([3]; HOAt alone) read?
The value was “able to induce an increase in STAT5 phosphorylation over untreated cells”.

And the “STAT5 phosphorylation, combination with IL-2” value ([3]; IL-2 and HOAt)?
Its value is “drastic increase in STAT5 phosphorylation”.

What about the “STAT5 phosphorylation after 24 hrs, combination with IL-2” value ([3]; IL-2 and HOAt, 24 hrs) of the same molecule?
Its value is “do not significantly decrease”.

What about the “levels of T cell activation (CD69) compared with αCD3/αCD28” value ([4]; CD69 upregulation) of the same molecule?
The value was “slightly increases the levels of T cell activation”.

And the “increase of CD25 levels (mean intensity of fluorescence)” value [4]?
The value was 1.4 times.

And the “pSTAT5 and STAT5 levels in the nucleus” value [5]?
The value was “increased in the nucleus; also recorded: increases the nuclear localization of STAT5”.

And the “maintenance of pSTAT5 levels” value [6]?
Its value is “maintain pSTAT5 levels in a dose dependent manner”.

And the “levels (transcription) of SOCS3” value [7]?
Its value is “increase the levels of SOCS3; also recorded: increases the transcription of SOC3S”.

What about the “activation of latent HIV-1 (viral reactivation)” value [8] of the same molecule?
The value was “able to reactivate HIV-1 latency; also recorded: activates HIV-1 latent cells; also recorded: activate latent HIV-1; also recorded: reactivate HIV-1 latency in a dose dependent manner”.

What about the “ability to induce viral reactivation compared to the original hit HOBt” value [8] of the same molecule?
The value was “more potent analog than the original hit; also recorded: increased activity compared to HOBt”.

What about the “levels of pSTAT5 in the inputs” value [9] of the same molecule?
Its value is “increases the levels of pSTAT5”.

What about the T cell proliferation [10] of the same molecule?
Its T cell proliferation is “only induces some degree of cell proliferation at the higher concentration tested”.

What about the “regrowth of latent viruses in patient cells in vitro” value [11] of the same molecule?
The value was “can induce regrowth of latent viruses in both patients”.

What about the “viral reactivation in the presence of IL-2, IL-4, and IL-15” value [2] of the same molecule?
The value was “dramatically increase viral reactivation”.

What about the “viral reactivation in the presence of IL-2, IL-7 and IL-5” value [2] of the same molecule?
The value was “increase viral reactivation”.

And the “viral reactivation in combination with IL-4” value [2]?
The value was “induced significant viral reactivation; also recorded: did induce significant viral reactivation”.

What about the “viral reactivation in combination with IL-9 and IL-21” value [2] of the same molecule?
Its value is “did not have an effect in viral reactivation”.

And the “viral reactivation in the absence of γc-cytokines” value [2]?
Its value is “significantly reactivate HIV-1 latency”.

And the “viral reactivation mediated by PMA, ionomycin and SAHA” value [12]?
The value was “able to increase viral reactivation mediated by these three stimuli; also recorded: increases viral reactivation”.

How did the “maintenance of pSTAT5 levels” value [6] turn out when O=c1c2ccccc2nnn1O [HO-DhBt, 3-hydroxybenzo[d][1,2,3]triazin-4-(3H)-one] was run?
The value was “maintain pSTAT5 levels in a dose dependent manner”.

And the “ability to induce viral reactivation compared to the original hit HOBt” value [8]?
Its value is “able to induce viral reactivation in a dose dependent manner and with increased efficiency; also recorded: increased ability to induce viral reactivation in a dose dependent manner”.

With Cc1ccc2nc(NCCN)c3ncc(C)n3c2c1 [BMS345541] as the molecule, how does the “effect on viral reactivation induced by HOAt” value [1] read?
The value was “did not have a significant effect”.

What does the source list for On1nnc2ccccc21 [HOBt, 1-hydroxybenzotriazole]?
increase of CD25 levels (mean intensity of fluorescence) [4]: 1.4 times; general T cell activation (upregulation of CD25 and CD69) ([4]; three days post activation, 3 donors): does not induce general T cell activation; maintenance of pSTAT5 levels [6]: maintain pSTAT5 levels in a dose dependent manner; activation of latent HIV-1 (viral reactivation) [8]: activate latent HIV-1 in a dose-dependent manner; also recorded: able to reactivate HIV-1 latency; also recorded: reactivate HIV-1 latency in a dose dependent manner; also recorded: activates HIV-1 latent cells; kinetics of HIV-1 latency reactivation compared with anti-CD3/CD28 ([8]; analyzed on Day 3, Day 5, or Day 7): slower kinetics; T cell differentiation (loss of CCR7 and CD27 expression) [13]: does not induce T cell differentiation; T cell proliferation [10]: only induces some degree of T cell proliferation at the higher concentration tested; viral reactivation in the presence of IL-2, IL-4, and IL-15 [2]: dramatically increase viral reactivation; viral reactivation in the presence of IL-2, IL-7 and IL-5 [2]: increase viral reactivation; viral reactivation in combination with IL-4 [2]: induced significant viral reactivation; also recorded: did induce significant viral reactivation; viral reactivation in combination with IL-9 and IL-21 [2]: did not have an effect in viral reactivation; viral reactivation in the absence of γc-cytokines [2]: significantly reactivate HIV-1 latency

IL-9: γc-cytokine was tested. Which “viral reactivation by cytokine alone” value [2] did it give?
Its value is “did not have an effect in viral reactivation; also recorded: no effect”.

B1: IL-7: γc-cytokine (protein, UniProt P13232 26-177, looked up)
Interleukin-7: DCDIEGKDGKQYESVLMVSIDQLLDSMKEIGSNCLNNEFNFFKRHICDANKEGMFLFRAARKLRQFLKMNSTGDFDLHLLKVSEGTTILLNCTGQVKGRKPAALGEAQPTKSLEENKSLKEQKKLNDLCFLKRLLQEIKTCWNKILMGTKEH
Which “viral reactivation by cytokine alone” value [2] does the source give for B1 here?
Its value is “trend towards increasing viral reactivation”.

B2: IL-4: γc-cytokine (protein, UniProt P05112 25-153, looked up)
Interleukin-4: HKCDITLQEIIKTLNSLTEQKTLCTELTVTDIFAASKNTTEKETFCRAATVLRQFYSHHEKDTRCLGATAQQFHRHKQLIRFLKRLDRNLWGLAGLNSCPVKEANQSTLENFLERLKTIMREKYSKCSS
For B2, which “viral reactivation by cytokine alone” value [2] is on record?
Its value is “not able to induce significant viral reactivation by itself; also recorded: did not induce viral reactivation by itself”.
